# Values quoted from earlier work in patent publication EP0920301B1, “THERAPEUTIC OR HYGIENIC COMPOSITIONS WITH CONTROLLED AND PROLONGED RELEASE OF THE ACTIVE PRINCIPLE(S), IN PARTICULAR FOR OPHTHALMIC USE” (priority 1997, dated 1998).
# Test system: la plupart des agents infectieux
# Conditions: stated threshold, source not given
substance,measurement,value
sulfate de gentamicine,concentration inhibitrice minimale,4 µg/mL
